test: gradient 5% acetonitrile 3 min, to 50% in 2 min, to 85% in 15 min, held 3 min, 100 µL/min; details: column: Zorbax Extend-C18 2.1 x 50 mm; eluents: water / acetonitrile, 0.1% formic acid
Summary of the method: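 Standards, all pure, were combined into mixtures of ~100 molecules and run at 100 μL/min on a Zorbax Extend-C18 column (2.1 × 50 mm, 1.8 μm) with water and acetonitrile, each containing 0.1% formic acid. A coupled quadrupole time-of-flight mass spectrometer operated in positive and negative ionization mode. Retention time values come from computationally picked adduct peaks, each inspected manually.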

| Compound | RP-LC retention time [s] |
| --- | --- |
| Cc1oc(C2CCC2)nc1C(=O)NCc1ccccc1C(F)(F)F | 1130 |
| CC1CCN(C(=O)c2ccc3c(c2)CCCN3S(C)(=O)=O)CC1 | 836 |
| COc1ccc(-n2ncc3c(=O)n(Cc4nc(-c5ccc(C)cc5)no4)cnc32)cc1 | 1030 |
| O=C(NC1CCN(c2cc(-c3ccc(F)cc3)[nH]n2)C1)c1ccc(F)cc1F (centres undefined) | 736 |
| O=C(O)c1cn2ccnc(-c3ccccc3)c2n1 | 644 |
| CCC(NC(=O)c1ccc2c(c1)nc1n2CCN(Cc2ccccc2)C1=O)c1cccs1 (centres undefined) | 836 |
| CCOc1ccc(CC(=O)N2c3ccccc3CC2c2nc(C3CC3)no2)cc1OCC (centres undefined) | 1070 |
| CCC(C)NC(=O)CC1CCN(C(=O)c2[nH]c(C)cc2C)CC1 (centres undefined) | 686 |
| Cc1ccc(-c2nc(-c3ccnc(N4CCCC4)c3)no2)s1 | 733 |
| COc1ccc(NC(=O)Cc2nnc(-c3ccc4ncccc4c3)o2)cc1Cl | 728 |
| Cc1ccc(-n2nc(CO)c(C(=O)NCc3ccc4c(c3)OCO4)n2)cc1 | 940 |
| CCCCOc1ccc(S(=O)(=O)N2CCN(c3nc(C)cc(N4CCOCC4)n3)CC2)cc1 | 818 |
| COC(=O)c1cc(S(=O)(=O)N2CCCC2C(=O)N2CCc3ccccc32)cn1C (centres undefined) | 848 |
| O=C(Nc1ccccc1Cl)N1CCN(CCn2c(-c3ccncc3)nc3cccnc32)CC1 | 588 |
| O=C(NC1CC1)C1CCCN(C(=O)c2cc(-c3ccncc3)n[nH]2)C1 (centres undefined) | 538 |
| C=CCN1CCN(c2ccc3nnc(CCc4nc(-c5ccc(F)cc5)no4)n3n2)CC1 | 622 |
| CCc1ccc(-c2nc3sc(C(=O)NC)c(C)n3c2NCCOC)cc1 | 754 |
| CC(C)(C)c1noc(-c2ccnc(-n3cnc(C(=O)N4CCc5ccccc5C4)c3)c2)n1 | 1080 |
| Cc1ccc(N2CCC(NS(=O)(=O)c3ccccc3F)C2=O)cc1 (centres undefined) | 894 |
| CCOc1ccc(N2CC(c3nc(-c4ccc(OC)cc4OC)no3)CC2=O)cc1 (centres undefined) | 902 |

| Compound | RP-LC retention time [s] |
| --- | --- |
| N#Cc1ccc(C(=O)NC2CCN(C(=O)N3C[C@H]4C[C@H](C3)[C@H]3CCCC(=O)N3C4)CC2)cc1 | 640 |
| O=C1C2CCCN2C(=O)c2ccccc2N1Cc1ccccc1 (centres undefined) | 744 |
| Cc1ccc(-c2csc(NC(=O)Cc3csc(-c4ccccc4)n3)n2)cc1C | 1230 |
| O=c1ccc(-c2ccc(F)cc2)nn1CCc1nc(-c2ccc(Cl)cc2)no1 | 1060 |
| COc1ccc(Cc2nnc3sc(COc4ccc(OC)cc4)nn23)cc1 | 902 |
| COC(=O)c1c(C)[nH]c(C(=O)N2CCC(CC(=O)NCCC(C)N3CCCCCC3)CC2)c1C (centres undefined) | 604 |
| Cc1ccc(C)c(S(=O)(=O)N2c3ccccc3CC2c2nc(C(C)C)no2)c1 (centres undefined) | 1230 |
| CCn1cc(-c2ccc(Cl)cc2)cc1C(=O)N1CCC2(CC1)OCCO2 | 1040 |
| CCOC(=O)c1cn[nH]c1S(=O)(=O)Nc1ccc2c(c1)OCCO2 | 683 |
| Oc1ccc(Br)cc1CN1CCN(c2cc(-c3ccncc3)[nH]n2)CC1 | 526 |
| CC(=O)Nc1ccc(C2=NN(C(C)=O)C(c3ccc4c(c3)OCO4)C2)cc1 (centres undefined) | 666 |
| Cc1ccc2nc3c(C(=O)O)cccn3c(=O)c2c1 | 677 |
| CC1CCC(NC(=O)C2CCN(C(=O)c3ncn4c3COC(c3ccc(Cl)cc3)C4)CC2)CC1 (centres undefined) | 880 |
| CCOC(=O)c1c(C)oc(C)c(C(=O)OCC)c1=O | 780 |
| CNC(=O)c1cc(=O)[nH]c2c(Cl)cccc12 | 596 |
| CC(C)(C)c1ccc(-c2noc(Cn3c(=O)n(-c4cccc(F)c4)c(=O)c4sccc43)n2)cc1 | 1220 |
| CCCN(CCC)C(=O)C1CCCN(c2ccc(-c3ccc(C)cc3)nn2)C1 (centres undefined) | 826 |
| O=S(=O)(c1ccc2c(c1)-c1oncc1CO2)N1CCN(Cc2ccc3c(c2)OCO3)CC1 | 666 |
| O=C(Nc1nc(-c2ccccc2)cs1)c1c(-c2ccccc2)nc2n1CCS2(=O)=O | 1010 |
| Cc1ccc(Sc2ccc(N3CCCC(C(=O)N4CCN(c5ccccn5)CC4)C3)nn2)cc1 (centres undefined) | 659 |

| Compound | RP-LC retention time [s] |
| --- | --- |
| CN1C(=O)c2ccccc2Oc2ccc(C(=O)NCc3ccc(F)cc3)cc21 | 868 |
| COCc1nc2c(NC(=O)C(C)C)cccn2n1 | 653 |
| COc1ccc(OC)c(S(=O)(=O)NC2CCc3nn(CC4CC4)c(=O)n3CC2)c1 (centres undefined) | 707 |
| Cc1ccc(-c2noc(-c3ccccc3S(=O)(=O)N3CCC(C)CC3)n2)cc1 | 1280 |
| COc1ccc(OC)c(NC(=O)Cn2cccc(-c3nc(-c4ccc(F)cc4)no3)c2=O)c1 | 897 |
| CCc1cccc(NC(=O)c2cc(CC)n3nccc3n2)c1 | 1150 |
| CCn1c(=O)c(N2CCC(C(=O)NC3CCCCCCC3)CC2)nc2cccnc21 | 1080 |
| O=C(Nc1nc2c(s1)CN(Cc1ccccc1)CC2)C1CCCN1S(=O)(=O)c1cccs1 (centres undefined) | 654 |
| CCOc1ccccc1CNC(=O)c1cc2c(=O)n(C)ccc2n1C | 713 |
| CC(C)n1cnc(S(=O)(=O)N2CCC(C(=O)N3CCN(c4ccccn4)CC3)CC2)c1 | 571 |
| O=C(COc1ccccc1F)NCC1CN(c2ccc3c(c2)OCO3)C(=O)O1 (centres undefined) | 721 |
| O=C(CN1CC=C(c2cnn(-c3ccccc3)c2)CC1)N1CCCc2ccccc21 | 726 |
| Cc1ccc(CNC(=O)N2CCN(c3cnn4c(C)nnc4c3)CC2)cc1 | 568 |
| CCCn1cc(CCNC(=O)c2ccc(C)c(F)c2)c2cccnc21 | 815 |
| Cc1nc(-c2csc(S(=O)(=O)N3CCCC(C(=O)Nc4ccc(C)c(C)c4)C3)c2)no1 (centres undefined) | 939 |
| CCCCNC(=O)c1ccccc1NC(=O)C1CCN(C(=O)C(C)(C)C)CC1 | 874 |
| CCN(CC)C(=O)c1c(C)sc2ccn(CC)c(=O)c12 | 720 |
| COc1ccc(-c2nnc(-c3ccccc3)o2)cc1S(=O)(=O)N1CCCCC1 | 1020 |
| Cc1cc(C(F)(F)F)nn1CC(=O)NCCn1c(C)cnc1C1CCC1 | 634 |

Second part, the compound after the results:

| RP-LC retention time [s] | Compound |
| --- | --- |
| 991 | CCOC(=O)c1c(C)[nH]c(CN(Cc2ccc3c(c2)OCO3)C(=O)c2ccco2)c1C |
| 865 | CCn1cc(-c2nc(CC(=O)Nc3ccc(C)cc3F)cs2)c2cccnc21 |
| 1260 | CCc1ccc(-c2csc(NC(=O)c3ccc(S(=O)(=O)N4CCCCC4)cc3)n2)cc1 |
| 669 | CN(CC1CCOC1)C(=O)NCc1ccc(F)cc1 (centres undefined) |
| 929 | CSc1cccc(NC(=O)NC2CCN(c3cc(C)cc(C)c3)C2=O)c1 (centres undefined) |
| 882 | COc1ccc(Cc2nc3nccc(-c4ccc(F)cc4)n3n2)cc1 |
| 603 | Cc1noc([C@@H]2CN(Cc3cccc(Cl)c3)C[C@H]2CO)n1 |
| 778 | Cn1cc(-c2noc(-c3cccs3)n2)ccc1=O |
| 649 | O=C(NC1CCCCC1)C1CCN(c2cnc(N3CCCC3)nc2)CC1 |
| 930 | CC(C)Oc1ccc(C(=O)N2CCC3(CC2)C(=O)N(C)c2ccccc23)cc1 |
| 991 | CS(=O)(=O)N1CCC(C(=O)N2CCCc3ccccc32)Oc2ccc(Cl)cc21 (centres undefined) |
| 1030 | CC(=O)c1cccc(NC(=O)c2cnn3c4c(cnc23)CCCCCC4)c1 |
| 764 | O=C(NC1CCCCCC1)c1ccc(-c2cncnc2)nc1 |
| 851 | O=C(Cn1nc2c3sc(N4CCCCC4)nc3ncn2c1=O)Nc1ccc(F)c(F)c1 |
| 712 | Cc1ccc(C)c(CNC(=O)Cn2c(=O)c3nnc(C)n3c3ncccc32)c1 |
| 573 | O=C(NCc1ccc2c(c1)OCO2)C1CCCN(c2nnc3ccccn23)C1 (centres undefined) |
| 715 | CN(C)c1cccc(C(=O)N2CCN(C(=O)C3CC3c3ccc4c(c3)OCO4)CC2)c1 (centres undefined) |
| 1050 | Cc1ccc(C)c(N2CCN(C(=O)C3CCCN(c4ncnc5c4nc4n5CCCCC4)C3)CC2)c1 (centres undefined) |
| 802 | CCc1ccc(NS(=O)(=O)c2cc(-c3c(CC)noc3NC(C)=O)ccc2OC)cc1 |
| 606 | CNC1(C)[C@H]2CC[C@H](C2)C1(C)C (some centres undefined) |
| 874 | O=C(Nc1cc(F)ccc1F)C1CCN(c2ccc(=O)n(-c3ccc(F)cc3)n2)CC1 |
| 885 | Cc1ccc2c(c1)C(c1ccc(F)cc1)N(C(=O)c1ccc(S(=O)(=O)N(C)C)cc1)CC(=O)N2 (centres undefined) |
| 778 | COc1ccc(S(=O)(=O)N2CCCC(C(=O)NCC3CCCO3)C2)cc1C (centres undefined) |
| 896 | Cc1nc(-c2noc(-c3ccc(F)cc3)n2)cn1CC(=O)NCc1ccc(Cl)cc1 |
| 1010 | CC1CCN(c2cc(-c3noc(C(=O)NC4CCCCCC4)n3)ccn2)CC1 |
| 623 | CC1(C)CC(NC(=O)COc2ccc(Cl)cc2)CC(C)(C)N1 |
| 686 | COc1cccc(C2Nc3ccccc3NC3=C2C(=O)CC(C)(C)C3)c1O (centres undefined) |
| 939 | COc1cc2c(cc1CNC(=O)c1ccc(Br)cc1)OCCCO2 |
| 1120 | CCOc1ccccc1NS(=O)(=O)c1cc(-c2cc(C(F)(F)F)on2)sc1C |
| 1010 | O=C(CN1C(=O)CC(c2ccccc2)=Nc2cccnc21)Nc1ccc(Cl)cc1 |
